According to patent US11684591B2, “Use of a GABAA receptor allosteric enhancer in medicine” (XI'AN LIBANG ZHAOXIN BIOTECHNOLOGY CO., LTD., priority 2018, dated 2023):

What was measured:
[1] = tested on: GABAA, Chloride Channel, TBPS; assay: [35S]TBPS radioligand receptor competitive binding test; set-up: species or system rats; settings: [35S]TBPS competitive binding
Method: 2. In Vitro GABAA Receptor Target Affinity Test
A radioligand ([^35S] TBPS) receptor competitive binding test was used to evaluate the affinity of the test compound (10 uM) with GABAA receptors.

[2] = Distribution in brain tissues after intravenous administration in rats (LC-MS/MS); format: in vivo, SD rats
Method: 1. Comparative Test of the Distribution in Brain Tissues of Compound 1 and Dipropofol (3,3′, 5,5′-Tetraisopropyl-4,4′-Biphenol) after Intravenous Administration in Rats
72 SD rats, weighing 200 to 220 g, were randomly divided into 12 groups (6 per time group), and fasted for 12 h before administration. A dose of 45 mg/kg was intravenously administered with Compound 1 or the dipropofol respectively, and the rates were sacrificed at 5 min, 15 min, 30 min, 1 h, 2 h and 4 h after the administration. The brain tissues were removed immediately, rinsed with ice-cold distilled water, blotted dry, and frozen at −40° C. for storage. The concentration of Compound 1 or the dipropofol in the brain tissues at different points in time after administration in rats was measured by LC-MS/MS, as shown in Table 1 and FIG. 1.

[3] = tested on: PTZ-induced tonic-clonic seizures; assay: Antiepileptic test in rats with PTZ-induced seizures; format: in vivo, male SD rats; set-up: key to Seizure Intensity (total score of 7 animals): summed score: grade V = 5, IV = 4, III = 3, below III = 0; settings: 45 mg/kg i.v.; for Number of episodes (animals), grade III / Number of episodes (animals), grade IV / Number of episodes (animals), grade V / Seizure Intensity (total score of 7 animals): n = 7
Method: 3. Antiepileptic Test of Compounds 1 and Dipropofol (3,3′, 5,5′-Tetraisopropyl-4,4′-Biphenol) in Rats with PTZ-Induced Seizures
In this test, male SD rats (Xi'an Jiaotong University), weighing 200 to 250 g, were used and intravenously administrated with 45 mg/kg of a Dipropofol injection, a Compound 1 injection, and blank solvent of the same volume. 1, 3, 5, 10, 15, 30, 60, 90 mins, and 120 mins after the intravenous administration, 70 mg/kg of PTZ was intraperitoneally injected in the rats to induce tonic-clonic seizures. 7 rats were used for each time point in each drug group. Rat seizure intensity was recorded in accordance with the Racine grading criteria in grade III to V seizure status. Scores were recorded according to the seizure intensity: 5 points for grade V, 4 points for grade IV, 3 points for grade III, and 0 point for below grade III.

[4] = PTZ 70 mg/kg i.p. 1 min after administration
[5] = PTZ 70 mg/kg i.p. 3 min after administration
[6] = PTZ 70 mg/kg i.p. 5 min after administration
[7] = PTZ 70 mg/kg i.p. 10 min after administration
[8] = PTZ 70 mg/kg i.p. 15 min after administration
[9] = PTZ 70 mg/kg i.p. 30 min after administration
[10] = PTZ 70 mg/kg i.p. 60 min after administration
[11] = PTZ 70 mg/kg i.p. 90 min after administration
[12] = PTZ 70 mg/kg i.p. 120 min after administration

With `CCCc1cc(-c2cc(CCC)c(O)c(C(C)C)c2)cc(C(C)C)c1O` [Compound 1, 4,4′-dihydroxy-3,3′-diisopropyl-5,5′-dipropylbiphenyl] the “Affinity for the GABAA receptors (in words)” value [1] was “high affinity for the GABAA receptors, which affinity is comparable to that of the dipropofol”, the IC50 ([1]; rats, test concentration 30, 10, 3, 1, 0.3 uM) was 2.93 µM and the “AUC0-4h in the brain tissues relative to that of the dipropofol” value ([2]; 45 mg/kg i.v.) was “about 1.31 times”. The “Time at which concentration peaked in the brain tissues” value ([2]; 45 mg/kg i.v.) was 15 min, the “Concentration in the brain tissues relative to that of the dipropofol” value ([2]; 45 mg/kg i.v., 5 min after administration) was 2.75 times and the concentration at 5 min ([2]; SD, rat, brain, iv, 45 mg/kg i.v., 5 min after administration, average, read-out: Drug concentration in brain tissues) was 35200 ng/g. The concentration at 15 min ([2]; SD, rat, brain, iv, 45 mg/kg i.v., 15 min after administration, average, read-out: Drug concentration in brain tissues) was 42700 ng/g, the concentration at 30 min ([2]; SD, rat, brain, iv, 45 mg/kg i.v., 30 min after administration, average, read-out: Drug concentration in brain tissues) was 39800 ng/g and the concentration at 1 h ([2]; SD, rat, brain, iv, 45 mg/kg i.v., 1 h after administration, average, read-out: Drug concentration in brain tissues) was 32000 ng/g. The concentration at 2 h ([2]; SD, rat, brain, iv, 45 mg/kg i.v., 2 h after administration, average, read-out: Drug concentration in brain tissues) was 22700 ng/g, the concentration at 4 h ([2]; SD, rat, brain, iv, 45 mg/kg i.v., 4 h after administration, average, read-out: Drug concentration in brain tissues) was 7750 ng/g and the “Brain entry rate and brain intake amount compared with dipropofol” value ([2]; same i.v. dose) was “significantly higher brain entry rate and brain intake amount than the dipropofol”. For the same compound, the “Number of episodes (animals), grade III” value [3, 4] was 2, the “Number of episodes (animals), grade IV” value [3, 4] was 2 and the “Number of episodes (animals), grade V” value [3, 4] was 0. For the same compound, the “Seizure Intensity (total score of 7 animals)” value (“Seizure Intensity” for short) [3, 4] was 14, the “Number of episodes (animals), grade III” value [3, 5] was 0 and the “Number of episodes (animals), grade IV” value [3, 5] was 0. For the same compound, the “Number of episodes (animals), grade V” value [3, 5] was 0, the “Seizure Intensity” value [3, 5] was 0 and the “Number of episodes (animals), grade III” value [3, 6] was 0. The “Number of episodes (animals), grade IV” value [3, 6] was 0, the “Number of episodes (animals), grade V” value [3, 6] was 0 and the “Seizure Intensity” value [3, 6] was 0. For the same compound, the “Number of episodes (animals), grade III” value [3, 7] was 0, the “Number of episodes (animals), grade IV” value [3, 7] was 0 and the “Number of episodes (animals), grade V” value [3, 7] was 0. For the same compound, the “Seizure Intensity” value [3, 7] was 0, the “Number of episodes (animals), grade III” value [3, 8] was 0 and the “Number of episodes (animals), grade IV” value [3, 8] was 0. The “Number of episodes (animals), grade V” value [3, 8] was 0, the “Seizure Intensity” value [3, 8] was 0 and the “Number of episodes (animals), grade III” value [3, 9] was 0. For the same compound, the “Number of episodes (animals), grade IV” value [3, 9] was 0, the “Number of episodes (animals), grade V” value [3, 9] was 0 and the “Seizure Intensity” value [3, 9] was 0. For the same compound, the “Number of episodes (animals), grade III” value [3, 10] was 0, the “Number of episodes (animals), grade IV” value [3, 10] was 0 and the “Number of episodes (animals), grade V” value [3, 10] was 0. For the same compound, the “Seizure Intensity” value [3, 10] was 0, the “Number of episodes (animals), grade III” value [3, 11] was 0 and the “Number of episodes (animals), grade IV” value [3, 11] was 0. For the same compound, the “Number of episodes (animals), grade V” value [3, 11] was 0, the “Seizure Intensity” value [3, 11] was 0 and the “Number of episodes (animals), grade III” value [3, 12] was 0. For the same compound, the “Number of episodes (animals), grade IV” value [3, 12] was 0, the “Number of episodes (animals), grade V” value [3, 12] was 0 and the “Seizure Intensity” value [3, 12] was 0. The “Time after administration for which the potency can be maintained” value ([3]; rats) was no less than 120 min.
